Reference: US10064873B2, “Compounds and compositions for treating HIV with derivatives of Betulin” (GlaxoSmithKline LLC, priority 2011, dated 2018)

System: HIV NL4-3 wt
Assay: MT4 antiviral assay, NL4-3 strain wild type
Type: cell-based, HIV-1
Conditions: Human immunodeficiency virus 1, NL43; MT4 cells; read-out: EC50 NL4-3 wt

**Q.** Which EC50 does the source give for `CC(C)C1=C2[C@H]3CC[C@@H]4[C@@]5(C)CC[C@H](OC(=O)CC(C)(C)C(=O)O)C(C)(C)[C@@H]5CC[C@@]4(C)[C@]3(C)CC[C@@]2([C@H](O)CNCc2ccc(Cl)cc2)CC1=O` [Example 15, 4-(((3aR,5aR,5bR,7aR,9S,11aR,11bR,13aS)-3a-((S)-2-((4-Chlorobenzyl)amino)-1-hydroxyethyl)-1-isopropyl-5a,5b,8,8,11a-pentamethyl-2-oxo-3,3a,4,5,5a,5b,6,7,7a,8,9,10,11,11a,11b,12,13,13a-octadecahydro-2H-cyclopenta[a]chrysen-9-yl)oxy)-2,2-dimethyl-4-oxobutanoic acid] here?
**A.** 6.9 nM

**Q.** For `CC(=O)O[C@@H](CNCc1ccc(Cl)cc1)[C@@]12CC[C@]3(C)[C@H](CC[C@@H]4[C@@]5(C)CC[C@H](OC(=O)CC(C)(C)C(=O)O)C(C)(C)[C@@H]5CC[C@]43C)C1=C(C(C)C)C(=O)C2` [Example 16, 4-(((3aR,5aR,5bR,7aR,9S,11aR,11bR,13aS)-3a-((R)-1-Acetoxy-2-((4-chlorobenzyl)amino)ethyl)-1-isopropyl-5a,5b,8,8,11a-pentamethyl-2-oxo-3,3a,4,5,5a,5b,6,7,7a,8,9,10,11,11a,11b,12,13,13a-octadecahydro-2H-cyclopenta[a]chrysen-9-yl)oxy)-2,2-dimethyl-4-oxobutanoic acid], which EC50 is on record?
**A.** 11 nM

**Q.** `CC(=O)O[C@H](CNCc1ccc(Cl)cc1)[C@@]12CC[C@]3(C)[C@H](CC[C@@H]4[C@@]5(C)CC[C@H](OC(=O)CC(C)(C)C(=O)O)C(C)(C)[C@@H]5CC[C@]43C)C1=C(C(C)C)C(=O)C2` [Example 17, 4-(((3aR,5aR,5bR,7aR,9S,11aR,11bR,13aS)-3a-((S)-1-Acetoxy-2-((4-chlorobenzyl)amino)ethyl)-1-isopropyl-5a,5b,8,8,11a-pentamethyl-2-oxo-3,3a,4,5,5a,5b,6,7,7a,8,9,10,11,11a,11b,12,13,13a-octadecahydro-2H-cyclopenta[a]chrysen-9-yl)oxy)-2,2-dimethyl-4-oxobutanoic acid] was tested. Which EC50 did it give?
**A.** 8.7 nM

**Q.** For `CC(=O)O[C@H](CN(CCN(C)C)Cc1ccc(Cl)cc1)[C@@]12CC[C@]3(C)[C@H](CC[C@@H]4[C@@]5(C)CC[C@H](OC(=O)CC(C)(C)C(=O)O)C(C)(C)[C@@H]5CC[C@]43C)C1=C(C(C)C)C(=O)C2` [Example 20, 4-(((3aR,5aR,5bR,7aR,9S,11aR,11bR,13aS)-3a-((S)-1-Acetoxy-2-((4-chlorobenzyl)(2-(dimethylamino)ethyl)amino)ethyl)-1-isopropyl-5a,5b,8,8,11a-pentamethyl-2-oxo-3,3a,4,5,5a,5b,6,7,7a,8,9,10,11,11a,11b,12,13,13a-octadecahydro-2H-cyclopenta[a]chrysen-9-yl)oxy)-2,2-dimethyl-4-oxobutanoic acid], which EC50 is on record?
**A.** 2.3 nM

**Q.** `CC(=O)O[C@@H](CN(CCN(C)C)Cc1ccc(Cl)cc1)[C@@]12CC[C@]3(C)[C@H](CC[C@@H]4[C@@]5(C)CC[C@H](OC(=O)CC(C)(C)C(=O)O)C(C)(C)[C@@H]5CC[C@]43C)C1=C(C(C)C)C(=O)C2` [Example 21, 4-(((3aR,5aR,5bR,7aR,9S,11aR,11bR,13aS)-3a-((R)-1-Acetoxy-2-((4-chlorobenzyl)(2-(dimethylamino)ethyl)amino)ethyl)-1-isopropyl-5a,5b,8,8,11a-pentamethyl-2-oxo-3,3a,4,5,5a,5b,6,7,7a,8,9,10,11,11a,11b,12,13,13a-octadecahydro-2H-cyclopenta[a]chrysen-9-yl)oxy)-2,2-dimethyl-4-oxobutanoic acid] was tested. Which EC50 did it give?
**A.** 76.5 nM

**Q.** Which EC50 does the source give for `CC(C)C1=C2[C@H]3CC[C@@H]4[C@@]5(C)CC[C@H](OC(=O)CC(C)(C)CC(=O)O)C(C)(C)[C@@H]5CC[C@@]4(C)[C@]3(C)CC[C@@]2([C@@H](O)CN(CCN(C)C)Cc2ccc(Cl)cc2)CC1=O` [Example 22, 5-(((3aR,5aR,5bR,7aR,9S,11aR,11bR,13aS)-3a-((R)-2-((4-Chlorobenzyl)(2-(dimethylamino)ethyl)amino)-1-hydroxyethyl)-1-isopropyl-5a,5b,8,8,11a-pentamethyl-2-oxo-3,3a,4,5,5a,5b,6,7,7a,8,9,10,11,11a,11b,12,13,13a-octadecahydro-2H-cyclopenta[a]chrysen-9-yl)oxy)-3,3-dimethyl-5-oxopentanoic acid] here?
**A.** 3.3 nM

**Q.** Which EC50 does the source give for `CC(C)C1=C2[C@H]3CC[C@@H]4[C@@]5(C)CC[C@H](OC(=O)CC(C)(C)CC(=O)O)C(C)(C)[C@@H]5CC[C@@]4(C)[C@]3(C)CC[C@@]2([C@H](O)CN(CCN(C)C)Cc2ccc(Cl)cc2)CC1=O` [Example 23, 5-(((3aR,5aR,5bR,7aR,9S,11aR,11bR,13aS)-3a-((S)-2-((4-Chlorobenzyl)(2-(dimethylamino)ethyl)amino)-1-hydroxyethyl)-1-isopropyl-5a,5b,8,8,11a-pentamethyl-2-oxo-3,3a,4,5,5a,5b,6,7,7a,8,9,10,11,11a,11b,12,13,13a-octadecahydro-2H-cyclopenta[a]chrysen-9-yl)oxy)-3,3-dimethyl-5-oxopentanoic acid] here?
**A.** 4.9 nM

**Q.** How did the EC50 turn out when `CC(C)C1=C2[C@H]3CC[C@@H]4[C@@]5(C)CC[C@H](OC(=O)CC(C)(C)C(=O)O)C(C)(C)[C@@H]5CC[C@@]4(C)[C@]3(C)CC[C@@]2([C@H](O)CNCc2ccccc2Cl)CC1=O` [Example 24, 4-(((3aR,5aR,5bR,7aR,9S,11aR,11bR,13aS)-3a-((S)-2-((2-Chlorobenzyl)amino)-1-hydroxyethyl)-1-isopropyl-5a,5b,8,8,11a-pentamethyl-2-oxo-3,3a,4,5,5a,5b,6,7,7a,8,9,10,11,11a,11b,12,13,13a-octadecahydro-2H-cyclopenta[a]chrysen-9-yl)oxy)-2,2-dimethyl-4-oxobutanoic acid] was run?
**A.** 40.4 nM

**Q.** Which EC50 does the source give for `CC(C)C1=C2[C@H]3CC[C@@H]4[C@@]5(C)CC[C@H](OC(=O)CC(C)(C)C(=O)O)C(C)(C)[C@@H]5CC[C@@]4(C)[C@]3(C)CC[C@@]2([C@@H](O)CNCc2ccccc2Cl)CC1=O` [Example 25, 4-(((3aR,5aR,5bR,7aR,9S,11aR,11bR,13aS)-3a-((R)-2-((2-chlorobenzyl)amino)-1-hydroxyethyl)-1-isopropyl-5a,5b,8,8,11a-pentamethyl-2-oxo-3,3a,4,5,5a,5b,6,7,7a,8,9,10,11,11a,11b,12,13,13a-octadecahydro-2H-cyclopenta[a]chrysen-9-yl)oxy)-2,2-dimethyl-4-oxobutanoic acid] here?
**A.** 14.7 nM

**Q.** For `CC(=O)O[C@H](CNCc1ccc(F)cc1)[C@@]12CC[C@]3(C)[C@H](CC[C@@H]4[C@@]5(C)CC[C@H](OC(=O)CC(C)(C)C(=O)O)C(C)(C)[C@@H]5CC[C@]43C)C1=C(C(C)C)C(=O)C2` [Example 26, 4-(((3aR,5aR,5bR,7aR,9S,11aR,11bR,13aS)-3a-((S)-1-Acetoxy-2-((4-fluorobenzyl)amino)ethyl)-1-isopropyl-5a,5b,8,8,11a-pentamethyl-2-oxo-3,3a,4,5,5a,5b,6,7,7a,8,9,10,11,11a,11b,12,13,13a-octadecahydro-2H-cyclopenta[a]chrysen-9-yl)oxy)-2,2-dimethyl-4-oxobutanoic acid], which EC50 is on record?
**A.** 4.9 nM

**Q.** Which EC50 does the source give for `CC(=O)O[C@@H](CNCc1ccc(F)cc1)[C@@]12CC[C@]3(C)[C@H](CC[C@@H]4[C@@]5(C)CC[C@H](OC(=O)CC(C)(C)C(=O)O)C(C)(C)[C@@H]5CC[C@]43C)C1=C(C(C)C)C(=O)C2` [Example 27, 4-(((3aR,5aR,5bR,7aR,9S,11aR,11bR,13aS)-3a-((R)-1-acetoxy-2-((4-fluorobenzyl)amino)ethyl)-1-isopropyl-5a,5b,8,8,11a-pentamethyl-2-oxo-3,3a,4,5,5a,5b,6,7,7a,8,9,10,11,11a,11b,12,13,13a-octadecahydro-2H-cyclopenta[a]chrysen-9-yl)oxy)-2,2-dimethyl-4-oxobutanoic acid] here?
**A.** 8.2 nM

**Q.** How did the EC50 turn out when `CC(C)C1=C2[C@H]3CC[C@@H]4[C@@]5(C)CC[C@H](OC(=O)CC(C)(C)C(=O)O)C(C)(C)[C@@H]5CC[C@@]4(C)[C@]3(C)CC[C@@]2([C@H](O)CN(C)Cc2ccc(Cl)cc2)CC1=O` [Example 29, 4-(((3aR,5aR,5bR,7aR,9S,11aR,11bR,13aS)-3a-((S)-2-((4-Chlorobenzyl)(methyl)amino)-1-hydroxyethyl)-1-isopropyl-5a,5b,8,8,11a-pentamethyl-2-oxo-3,3a,4,5,5a,5b,6,7,7a,8,9,10,11,11a,11b,12,13,13a-octadecahydro-2H-cyclopenta[a]chrysen-9-yl)oxy)-2,2-dimethyl-4-oxobutanoic acid] was run?
**A.** 17.5 nM

**Q.** How did the EC50 turn out when `CC(C)C1=C2[C@H]3CC[C@@H]4[C@@]5(C)CC[C@H](OC(=O)CC(C)(C)C(=O)O)C(C)(C)[C@@H]5CC[C@@]4(C)[C@]3(C)CC[C@@]2([C@@H](O)CN(C)Cc2ccc(Cl)cc2)CC1=O` [Example 31, 4-(((3aR,5aR,5bR,7aR,9S,11aR,11bR,13aS)-3a-((R)-2-((4-Chlorobenzyl)(methyl)amino)-1-hydroxyethyl)-1-isopropyl-5a,5b,8,8,11a-pentamethyl-2-oxo-3,3a,4,5,5a,5b,6,7,7a,8,9,10,11,11a,11b,12,13,13a-octadecahydro-2H-cyclopenta[a]chrysen-9-yl)oxy)-2,2-dimethyl-4-oxobutanoic acid] was run?
**A.** 5.4 nM

**Q.** Which EC50 does the source give for `CC(=O)N(Cc1ccc(Cl)cc1)C[C@@H](O)[C@@]12CC[C@]3(C)[C@H](CC[C@@H]4[C@@]5(C)CC[C@H](OC(=O)CC(C)(C)C(=O)O)C(C)(C)[C@@H]5CC[C@]43C)C1=C(C(C)C)C(=O)C2` [Example 33, 4-(((3aR,5aR,5bR,7aR,9S,11aR,11bR,13aS)-3a-((S)-2-(N-(4-Chlorobenzyl)acetamido)-1-hydroxyethyl)-1-isopropyl-5a,5b,8,8,11a-pentamethyl-2-oxo-3,3a,4,5,5a,5b,6,7,7a,8,9,10,11,11a,11b,12,13,13a-octadecahydro-2H-cyclopenta[a]chrysen-9-yl)oxy)-2,2-dimethyl-4-oxobutanoic acid] here?
**A.** 5.3 nM

**Q.** Which EC50 does the source give for `CC(=O)N(Cc1ccc(Cl)cc1)C[C@H](O)[C@@]12CC[C@]3(C)[C@H](CC[C@@H]4[C@@]5(C)CC[C@H](OC(=O)CC(C)(C)C(=O)O)C(C)(C)[C@@H]5CC[C@]43C)C1=C(C(C)C)C(=O)C2` [Example 34, 4-(((3aR,5aR,5bR,7aR,9S,11aR,11bR,13aS)-3a-((R)-2-(N-(4-Chlorobenzyl)acetamido)-1-hydroxyethyl)-1-isopropyl-5a,5b,8,8,11a-pentamethyl-2-oxo-3,3a,4,5,5a,5b,6,7,7a,8,9,10,11,11a,11b,12,13,13a-octadecahydro-2H-cyclopenta[a]chrysen-9-yl)oxy)-2,2-dimethyl-4-oxobutanoic acid] here?
**A.** 7.1 nM
